Test systems include 786-0; A498; ACHN; BT-549; CCRF-CEM; EKVX; HOP-62; M14; MDA-MB-231; Malme-3M; NCI-H226; NCI-H23; NCI-H460; OVCAR-4; OVCAR-8; PC-3; SR; UACC-62; UO-31; SF-539.
Common to all, as to assay: NCI-60 cell line screen, 48 h

Structures are written as SMILES.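 Tested at 5 concentrations; 48 h exposure; 96-well plates; endpoints linearly interpolated, else capped at highest concentration. GI50 = concentration required for 50% inhibition of growth.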 Calls of active or inactive are those of the source. No stated cut-off is given here; in the data, active = GI50 up to about 1.1 µM and inactive = higher. A value given as a limit tells only on which side of the number the result lay.

Here are results for 10 compounds from ChEMBL document CHEMBL1201862, “PubChem BioAssay data set” (2004).

As to `COc1ccc2[nH]c(C(O)(Cc3cccnc3)Cc3cccnc3)cc2c1`, the GI50 in the assay with 786-0, in the assay on A498, in the assay with ACHN, with BT-549, with CCRF-CEM and with EKVX was > 100 µM (inactive) throughout. For the same compound, the GI50 in the assay with HOP-62, in the assay on M14, with MDA-MB-231, in the assay on Malme-3M, in the assay on NCI-H226 and in the assay with NCI-H23 was > 100 µM (inactive) each time. In addition, the GI50 with NCI-H460, in the assay with OVCAR-4, in the assay on OVCAR-8, with PC-3, in the assay with SR and in the assay on UACC-62 was > 100 µM (inactive) each time. For the same compound, in the assay with UO-31, the GI50 is > 100 µM (inactive).

Take `COc1ccccc1NC(=S)Nc1cc(C)ccn1`: the GI50 was > 100 µM (inactive) in the assay on 786-0; > 100 µM (inactive) with A498; > 100 µM (inactive) in the assay with BT-549; > 100 µM (inactive) with CCRF-CEM; > 100 µM (inactive) with EKVX; 66.8 µM (inactive) in the assay with HOP-62. Also, the GI50 in the assay on M14 was > 100 µM (inactive); in the assay on MDA-MB-231, 20 µM (inactive); with Malme-3M, > 100 µM (inactive); in the assay on NCI-H226 it was > 100 µM (inactive); in the assay with NCI-H460, > 100 µM (inactive); in the assay on OVCAR-4, > 100 µM (inactive). In addition, the GI50 in the assay with OVCAR-8, in the assay with PC-3, in the assay on SF-539, in the assay with SR, with UACC-62 and in the assay with UO-31 was > 100 µM (inactive) each time.

As to `CC1(C)C(=O)C2(OS(=O)(=O)C(F)(F)F)CCC1C2` (stereo not drawn), the GI50 in the assay on 786-0, in the assay on A498, with ACHN, in the assay on BT-549, in the assay on CCRF-CEM and with EKVX was > 100 µM (inactive) each time. The GI50 with HOP-62, in the assay on M14, with MDA-MB-231, in the assay on Malme-3M, with NCI-H226 and in the assay on NCI-H23 was > 100 µM (inactive) in each case. The GI50 in the assay on NCI-H460 was > 100 µM (inactive); in the assay on OVCAR-4, > 100 µM (inactive); in the assay on OVCAR-8 it was > 100 µM (inactive); with PC-3 it was > 100 µM (inactive); in the assay with SF-539 it was > 100 µM (inactive); with SR, 1 µM (active). The GI50 in the assay on UACC-62 and in the assay on UO-31 was > 100 µM (inactive) throughout.

As to `N=c1oc2c(Br)cc(Br)cc2cc1C(=O)Nc1ccccn1`, the GI50 in the assay with 786-0 is 36.5 µM (inactive); in the assay with A498, > 100 µM (inactive); with ACHN, 70.5 µM (inactive); with BT-549, > 100 µM (inactive); in the assay on CCRF-CEM it was 41.2 µM (inactive); with EKVX it was > 100 µM (inactive). The GI50 is 53 µM (inactive) in the assay on HOP-62; 56 µM (inactive) in the assay with M14; > 100 µM (inactive) in the assay on MDA-MB-231; 52.2 µM (inactive) in the assay on Malme-3M; 84.9 µM (inactive) with NCI-H226; 69.2 µM (inactive) with NCI-H23. Also, the GI50 in the assay on NCI-H460 was 71.9 µM (inactive); in the assay with OVCAR-4 it was 68.9 µM (inactive); with OVCAR-8 it was 45.9 µM (inactive); with PC-3, 38.5 µM (inactive); in the assay on SF-539, 31.8 µM (inactive); with SR it was 91 µM (inactive). The GI50 in the assay on UACC-62 is 74.8 µM (inactive).

As to `COC1(CC[C@@H](C)COC2OC(CO)C(O)C(O)C2O)O[C@H]2C[C@H]3[C@@H]4CC=C5C[C@@H](OC6OC(CO)C(OC7OC(C)C(O)C(O)C7O)C(O)C6OC6OC(C)C(O)C(O)C6O)CC[C@]5(C)[C@H]4CC[C@]3(C)[C@H]2[C@@H]1C` (stereo partly drawn), the GI50 is 2.02 µM (inactive) in the assay on 786-0; 10.2 µM (inactive) with A498; 11.4 µM (inactive) in the assay with ACHN; 3.52 µM (inactive) with BT-549; 17.9 µM (inactive) in the assay with CCRF-CEM; 22.1 µM (inactive) in the assay with EKVX. Besides, the GI50 is 2.56 µM (inactive) in the assay with HOP-62; 2.55 µM (inactive) in the assay with M14; 1.6 µM (inactive) in the assay with MDA-MB-231; 3.01 µM (inactive) in the assay with Malme-3M; 9.18 µM (inactive) in the assay with NCI-H226; 3.97 µM (inactive) in the assay on NCI-H23. Further, the GI50 is 3.54 µM (inactive) in the assay with OVCAR-4; 3.53 µM (inactive) with OVCAR-8; 3.13 µM (inactive) with PC-3; 1.89 µM (inactive) with SF-539; 25.1 µM (inactive) in the assay with SR; 2.92 µM (inactive) with UO-31.

Regarding `CCOC(=O)c1nc2cc(C(F)(F)F)ccc2nc1Oc1ccc(C#N)cc1`, the GI50 with 786-0 is > 100 µM (inactive); in the assay with A498, 69.8 µM (inactive); in the assay on ACHN, > 100 µM (inactive); with BT-549, > 100 µM (inactive); with CCRF-CEM it was 70 µM (inactive); in the assay on EKVX, > 100 µM (inactive). Moreover, the GI50 in the assay with M14, in the assay on MDA-MB-231, with Malme-3M, with NCI-H226, in the assay on NCI-H460 and in the assay on OVCAR-4 was > 100 µM (inactive) throughout. Also, the GI50 is > 100 µM (inactive) in the assay on OVCAR-8; > 100 µM (inactive) in the assay with PC-3; > 100 µM (inactive) with SF-539; 60.7 µM (inactive) in the assay on SR; > 100 µM (inactive) with UACC-62; > 100 µM (inactive) in the assay on UO-31.

Turning to `O=c1oc2nc(-c3ccccc3)cc(C(F)(F)F)c2n1Cc1ccccc1`, the GI50 in the assay with 786-0 is 5.43 µM (inactive); in the assay with A498, 2.07 µM (inactive); in the assay on ACHN, 11.7 µM (inactive); in the assay on BT-549, 19.7 µM (inactive); in the assay on CCRF-CEM it was 7.21 µM (inactive); with EKVX it was 7.03 µM (inactive). Further, the GI50 is 12.2 µM (inactive) in the assay on HOP-62; 4.33 µM (inactive) with M14; > 24.4 µM (inactive) in the assay on MDA-MB-231; 1.89 µM (inactive) in the assay on Malme-3M; > 100 µM (inactive) in the assay on NCI-H226; 6.14 µM (inactive) with NCI-H23. The GI50 in the assay with NCI-H460 is > 100 µM (inactive); with OVCAR-4 it was 11.6 µM (inactive); in the assay on OVCAR-8 it was 42.4 µM (inactive); with PC-3, 3.46 µM (inactive); in the assay on SF-539, 7.5 µM (inactive); in the assay with SR, 0.454 µM (active). Further, in the assay on UACC-62, the GI50 was 4.24 µM (inactive).

On to `Nc1ccc(-c2nc3cc(F)ccc3s2)cc1Cl`, for which the GI50 in the assay with 786-0 was 25.8 µM (inactive); with A498, 3.07 µM (inactive); in the assay with ACHN, 1.57 µM (inactive); in the assay with BT-549 it was 8.15 µM (inactive); in the assay with CCRF-CEM, > 22.9 µM (inactive); in the assay on EKVX, 1.17 µM (inactive). For the same compound, the GI50 with HOP-62 is 8.36 µM (inactive); in the assay with M14, > 85.1 µM (inactive); in the assay on MDA-MB-231, 5.08 µM (inactive); with Malme-3M it was 20.1 µM (inactive); in the assay on NCI-H226 it was 0.109 µM (active); with NCI-H460, 0.0364 µM (active). For the same compound, the GI50 in the assay on OVCAR-4 was 17.1 µM (inactive); in the assay on OVCAR-8, 38.6 µM (inactive); in the assay on PC-3 it was 20 µM (inactive); with SF-539, 20.2 µM (inactive); with SR it was 0.0382 µM (active); in the assay with UACC-62 it was 39.7 µM (inactive). In the assay with UO-31, the GI50 is 31.8 µM (inactive).

In the case of `CCCCc1c2c(c(C)c3c1C(=O)OC3)Oc1ccccc1O2`, the GI50 is 1.5 µM (inactive) with 786-0; 1.25 µM (inactive) in the assay on A498; 4.59 µM (inactive) in the assay on ACHN; 6.46 µM (inactive) with BT-549; 0.695 µM (active) in the assay with CCRF-CEM; 1.23 µM (inactive) with HOP-62. Besides, the GI50 is 1.22 µM (inactive) in the assay with M14; 2.57 µM (inactive) in the assay on MDA-MB-231; 0.596 µM (active) in the assay with Malme-3M; 2.8 µM (inactive) in the assay with NCI-H226; 2.9 µM (inactive) in the assay with NCI-H23; 0.369 µM (active) in the assay on NCI-H460. Also, the GI50 was 3.56 µM (inactive) with OVCAR-4; 3.67 µM (inactive) in the assay on OVCAR-8; 0.442 µM (active) with PC-3; 0.608 µM (active) in the assay with SF-539; 0.186 µM (active) in the assay with SR; 0.535 µM (active) with UACC-62. Also, the GI50 in the assay with UO-31 is 5.77 µM (inactive).

For `O=c1c(O)c(-c2cc(O)c(O)c(O)c2)oc2cc(O)cc(O)c12` [MYRICETIN], the GI50 in the assay on 786-0 was 20.1 µM (inactive); in the assay with A498, > 100 µM (inactive); with ACHN, 79.8 µM (inactive); with BT-549 it was 32.6 µM (inactive); with CCRF-CEM, 64.6 µM (inactive); in the assay with HOP-62 it was 20.3 µM (inactive). Besides, the GI50 was 32.1 µM (inactive) in the assay on M14; 18.1 µM (inactive) in the assay on MDA-MB-231; > 100 µM (inactive) in the assay on Malme-3M; 25.6 µM (inactive) in the assay on NCI-H226; 18.4 µM (inactive) in the assay on NCI-H23; 20.4 µM (inactive) in the assay on NCI-H460. Besides, the GI50 is 16.3 µM (inactive) in the assay on OVCAR-4; 17.9 µM (inactive) in the assay on OVCAR-8; > 100 µM (inactive) in the assay on PC-3; > 100 µM (inactive) with SF-539; 40.7 µM (inactive) with SR; 39.5 µM (inactive) in the assay on UACC-62. The GI50 in the assay with UO-31 was 90.8 µM (inactive).
